{"source": "patent US11273169B2", "about": "“Food for improving intestinal environment” (AJINOMOTO CO., INC., priority 2017, dated 2022)", "test_system": "lactic acid bacteria group (mainly, Lactobacillus spp.)", "experiment": "Addition test of γ-PGA and fructo-oligosaccharide to human feces suspension", "assay_type": "cell-based", "conditions": "human feces suspension in PBS medium, anaerobic culture 37° C. 4 days, quantitative PCR, 0.1-1.0% γ-PGA, 0.5% FOS, n=6", "description": "The PBS solutions of Examples and Comparative Examples shown in Table 1 were prepared and used as media for feces culture. PBS alone was used as a negative control. As γ-PGA, polyglutamic acid “CALTAKE” manufactured by Ajinomoto Co., Inc. was used, and as FOS, fructo-oligosaccharide manufactured by Wako Pure Chemical Industries, Ltd. was used.\nThereafter, 10 ml each was dispensed into glass vials and the glass vials were sterilized by autoclave, made anaerobic, and sealed with a butyl rubber stopper. The feces suspension was prepared by collecting about 10 g of feces from 6 healthy individuals (3 men and 3 women) in their 20s to 40s and suspending same in 80 ml of anaerobic PBS. […] DNA was extracted from this pellet using ISOFECAL for BeadsBeat (manufactured by NIPPON GENE CO., LTD.), and quantitative PCR was performed using GeneAce SYBR qPCR Mix α (manufactured by NIPPON GENE CO., LTD.). Quantitative PCR was performed under the conditions of 45 cycles of 95° C. for 30 sec and 60° C. for 60 sec after 95° C. for 10 min. Primers for quantitative PCR used for detection of lactic acid bacteria group (mainly, Lactobacillus spp.) were as follows.\nUsing the results obtained by quantitative PCR, the relative amount when PBS alone (negative control) is 1 was calculated, and the results were normalized with z-score. […]"}
{"substance": "γ-polyglutamic acid [γ-PGA]", "values": [{"measurement": "proliferation of the lactic acid bacteria group", "value": "not observed"}]}
